According to US20030143733A1, “Tetrapeptide” (La Jolla Cancer Research Foundation, priority 1985, published 2003):

Key:
[1] = system: attachment of cells to a fibronectin-coated substrate; assay: Inhibition of cell attachment to fibronectin-coated substrate by solubilized peptide; assay type: cell-based; conditions: peptide in solubilized form combined with free cells
Experimental: Those peptides having a COOH-terminal cystine residue were assayed for their activity in promoting cell attachment by first attaching them via the heterobifunctional crosslinker SPDP (N-succinimidyl 3-(2-pyridyldithio) propionate, Sigma, St. Louis, Mo.) to rabbit IgG which was immobilized on plastic. The attachment assay was then carried out as described by Ruoslahti, E. et al., Methods Enzymology 82:803-831 (1981) using freshly trypsinized normal rat kidney cells (NRK). After a one hour incubation, those cells which had attached were fixed, stained and quantitated using either an Artek cell counter or a multiscan spectrophotometer. […] The relative activity of each peptide is indicated by the concentration of the peptides in nmoles/ml necessary to achieve half-maximal activity, or, where accurate quantitation was not possible, by the crosses at the right of FIG. 1, and by the graph in FIG. 2.
If the mechanism of cell attachment involves the recognition of the amino acid sequence of the tetrapeptide by a receptor on the cell, then it could be postulated that attachment could be inhibited by preventing this recognition by “blocking” the receptor. […] In separate experiments, various concentrations of the tetrapeptide (Arg-Gly-Asp-Ser) and a hexapeptide, Pro-Arg-Gly-Asp-Ser-Gly in a solubilized form were combined with the free cells, and attachment activity measured as above.

[2] = system: normal rat kidney cells (NRK); assay: Cell attachment promoting activity assay (peptide coupled via SPDP to rabbit IgG immobilized on plastic); assay type: cell-based; conditions: freshly trypsinized NRK cells, one hour incubation
Experimental: Those peptides having a COOH-terminal cystine residue were assayed for their activity in promoting cell attachment by first attaching them via the heterobifunctional crosslinker SPDP (N-succinimidyl 3-(2-pyridyldithio) propionate, Sigma, St. Louis, Mo.) to rabbit IgG which was immobilized on plastic. The attachment assay was then carried out as described by Ruoslahti, E. et al., Methods Enzymology 82:803-831 (1981) using freshly trypsinized normal rat kidney cells (NRK). After a one hour incubation, those cells which had attached were fixed, stained and quantitated using either an Artek cell counter or a multiscan spectrophotometer. In all cases, maximum attachment was about 80-90% of the cells plated. The relative activity of each peptide is indicated by the concentration of the peptides in nmoles/ml necessary to achieve half-maximal activity, or, where accurate quantitation was not possible, by the crosses at the right of FIG. 1, and by the graph in FIG. 2.

H-Arg-Gly-Asp-Ser-OH (RGDS; printed: Arg-Gly-Asp-Ser)
inhibition of normal attachment of cells to a fibronectin-coated substrate [1]: inhibit the normal attachment of cells | cell attachment promoting activity [2]: had the property of causing cell attachment

PRGDSG [Pro-Arg-Gly-Asp-Ser-Gly]
inhibition of normal attachment of cells to a fibronectin-coated substrate [1]: inhibit the normal attachment of cells

RVDSPAC [peptide with substitution of the glycine with the bulky valine residue]
cell attachment promoting activity [2]: abolished the activity
